Source: PubChem BioAssay (NCI)
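1) Cells in 96-well plates. 2) Compound, 48 h, 5 concentrations. 3) Linear interpolation between surrounding doses. 4) Unreached endpoint = highest concentration. Abbreviation: GI50, concentration required for 50% inhibition of growth. TGI is the concentration that stops growth completely.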

Assays:
Experiment in all cases: NCI anticancer screen, dose series, 48 h
HS 578T breast = tested on: HS 578T breast
MCF7 breast = tested on: MCF7 breast
MDA-MB-231 breast = tested on: MDA-MB-231 breast
PC-3 prostate = tested on: PC-3 prostate
T-47D breast = tested on: T-47D breast
DMS 273 small cell lung = tested on: DMS 273 small cell lung
KM20L2 colon = tested on: KM20L2 colon
M19-MEL melanoma = tested on: M19-MEL melanoma

Compound | GI50 (HS 578T breast) | TGI (HS 578T breast) | GI50 (MCF7 breast) | TGI (MCF7 breast) | GI50 (MDA-MB-231 breast) | TGI (MDA-MB-231 breast) | GI50 (PC-3 prostate) | TGI (PC-3 prostate) | GI50 (T-47D breast) | TGI (T-47D breast) | GI50 (DMS 273 small cell lung) | TGI (DMS 273 small cell lung) | GI50 (KM20L2 colon) | TGI (KM20L2 colon) | GI50 (M19-MEL melanoma) | TGI (M19-MEL melanoma)
CCOC(=O)c1cnn(-c2ccnc3c(C(F)(F)F)cccc23)c1N | 24.8 µM | > 100 µM | > 100 µM | > 100 µM | > 100 µM | > 100 µM | > 100 µM | > 100 µM | > 100 µM | > 100 µM |  |  |  |  |  | 
CC1=CC(=O)C(C(C)=Nc2ccccc2Cl)C(=O)O1 (stereo unspecified) | > 100 µM | > 100 µM | > 100 µM | > 100 µM | > 100 µM | > 100 µM | > 100 µM | > 100 µM | > 100 µM | > 100 µM |  |  |  |  |  | 
COc1ccc2c(c1)nc(N)c1c3cccnc3cn21 | 0.0951 µM | > 49.6 µM | 0.302 µM | 17.5 µM | 0.556 µM | 22.4 µM | 0.0412 µM | 27.7 µM | 6.75 µM | 33.4 µM |  |  |  |  |  | 
CCOC(=O)N1CCN(S(=O)(=O)c2oc(-c3ccc(Cl)cc3)nc2C#N)CC1 | 4.2 µM | 23.8 µM | 1.75 µM | 4.21 µM | 1.94 µM | 4.24 µM | 2.24 µM | 5.77 µM | 2.29 µM | 5.94 µM |  |  |  |  |  | 
CCCCC[C@H]1C/C=C2/C(=O)C(Cl)=C[C@@H]2C/C=C\CCCC(=O)O[C@@H](CCCCC)C/C=C2/C(=O)C(Cl)=C[C@@H]2C/C=C\CCCC(=O)O1 | 0.709 µM | 16.7 µM | 0.155 µM | 1.93 µM | 0.372 µM | 0.995 µM | 0.368 µM | 1.08 µM | 0.39 µM | 1.18 µM |  |  |  |  |  | 
Cc1cn2c(/C=N/N/C(N)=N\N)c(-c3ccc(Cl)c([N+](=O)[O-])c3)nc2s1 | 1.1 µM | 2.39 µM | 1.56 µM | > 50 µM | 0.791 µM | 1.87 µM | 9.95 µM | 24.8 µM | 0.878 µM | 2.48 µM |  |  |  |  |  | 
S=c1ssc(Sc2ccccn2)c1Cl |  |  |  |  | 12 µM | 24.4 µM | 11.9 µM | 24.2 µM | 17 µM | 34.6 µM |  |  |  |  |  | 
NCc1ccc(-n2c(-c3nonc3N)nc3cnccc32)cc1 | 0.674 µM | > 25 µM | 5.19 µM | > 25 µM | > 25 µM | > 25 µM | > 19.3 µM | > 25 µM | 8.48 µM | > 25 µM |  |  |  |  |  | 
CC(=O)C1=C([O-])C(C)OC1=O.CC(=O)C1=C([O-])C(C)OC1=O.[NH-]C1CCCC[C@H]1[NH-].[Pt+4] (stereo unspecified) |  |  |  |  |  |  |  |  |  |  | 44.9 µM | > 100 µM | 66.7 µM | > 100 µM | 56 µM | > 100 µM
COc1ccc2c(c1)C(=O)c1c-2n(CCCN2CCOCC2)c(=O)c2ccccc12 | 8.95 µM | > 100 µM | 0.291 µM | 13 µM | 15.4 µM | > 100 µM | 8.67 µM | > 100 µM | 1.55 µM | 7.41 µM |  |  |  |  |  | 
COc1cnc2c(c1)C(=O)c1c-2n(CCCN2CCCC2)c(=O)c2cc(Cl)ccc12 | 6.87 µM | 17.9 µM |  |  | 6.15 µM | 15.2 µM | 0.859 µM | 9.48 µM | 1.21 µM | 18.9 µM |  |  |  |  |  | 
N#CC1C(N)=NNC12Nc1ccccc1N2 (stereo unspecified) | 4.8 µM | 25.7 µM |  |  | 3.04 µM | 40.6 µM | 22.2 µM | > 100 µM | 50.3 µM | > 100 µM |  |  |  |  |  | 
Cc1ccc2c(c1)ncn2-c1ncnc2c1CC(C)c1ccccc1N2C (stereo unspecified) | 0.104 µM | 51 µM | 0.0368 µM | 12.5 µM | 0.192 µM | 16.6 µM | 0.0561 µM | 17.7 µM | 2.17 µM | 8.53 µM |  |  |  |  |  | 
C=C(C)[C@@H]1CC[C@@]2(C)[C@H]1[C@H]1CCC3[C@@]4(C)CC[C@H](O)C(C)(C)[C@@H]4CC[C@@]3(C)[C@]1(C)C[C@@H]2O (stereo partly specified) |  |  |  | > 100 µM |  | > 100 µM |  | > 100 µM |  | > 100 µM |  |  |  |  |  | 
Nc1nc(Nc2cccc(F)c2)nc2ccccc12 | 20 µM | 58 µM | 15.6 µM | > 100 µM | 13.8 µM | 34.2 µM | 31 µM | > 100 µM | 15.6 µM | 63 µM |  |  |  |  |  | 
CCc1c[nH]c2ncnc(N3CC[C@@](N)(CNC(=O)c4ccc(F)cc4F)C3)c12 | 18.2 µM | 75.2 µM | 26.6 µM | > 100 µM | 35.6 µM | > 100 µM | 35.4 µM | > 100 µM | 30.8 µM | > 100 µM |  |  |  |  |  | 
CC(C)(Br)C(=O)/C=C/c1ccccc1 |  | > 60.3 µM |  | 15.3 µM |  | > 69.8 µM |  | 33.7 µM |  | > 52 µM |  |  |  |  |  | 
Oc1cc(Cl)ccc1Oc1ccc(Cl)cc1Cl | 4.54 µM | 42.6 µM | 3.14 µM | 10.6 µM | 2.16 µM | 4.95 µM | 2.78 µM | 8.43 µM | 3.03 µM | 9.94 µM |  |  |  |  |  | 
Cn1cc(-c2ccc3c(c2)CCN3C(=O)Cc2cccc(C(F)(F)F)c2)c2c(N)ncnc21 | 2.76 µM | 19.1 µM | 4.5 µM | 18.4 µM | 4.69 µM | 21.9 µM | 4.86 µM | 28.7 µM | 3.32 µM | 20.2 µM |  |  |  |  |  | 
CC(=O)OC1C2(CC3N4C(=O)C5(CO)SSC4(CC31O)C(=O)N5C)OC(C)C(C)(C)C2=O (stereo unspecified) | 0.0449 µM | 0.213 µM | < 0.0139 µM | 0.403 µM | < 0.01 µM | 0.0558 µM | 0.148 µM | 0.588 µM | < 0.01 µM | 0.0782 µM |  |  |  |  |  | 
Clc1ccc2nc(Oc3ccccc3)cnc2c1 | > 100 µM | > 100 µM | > 100 µM | > 100 µM | > 100 µM | > 100 µM | > 100 µM | > 100 µM | > 100 µM | > 100 µM |  |  |  |  |  | 
CN(C)c1ccc(C(N)=O)cn1 |  | > 100 µM |  | > 100 µM |  | > 100 µM |  | > 100 µM |  |  |  |  |  |  |  | 
